Data reported in article PMC9202051 (ACS Omega, 2022).
Where two headings read alike, the source gives them in different places.

How the values were obtained:
[1] = target: T1, soybean 15-LOX (Glycine max, UniProt P08170); assay: soybean 15-LOX inhibition assay; format: biochemical; details: for inhibition at 250 µM: read-out: inhibition (%) at 0.25 mM
T1 sequence (P08170 1-839): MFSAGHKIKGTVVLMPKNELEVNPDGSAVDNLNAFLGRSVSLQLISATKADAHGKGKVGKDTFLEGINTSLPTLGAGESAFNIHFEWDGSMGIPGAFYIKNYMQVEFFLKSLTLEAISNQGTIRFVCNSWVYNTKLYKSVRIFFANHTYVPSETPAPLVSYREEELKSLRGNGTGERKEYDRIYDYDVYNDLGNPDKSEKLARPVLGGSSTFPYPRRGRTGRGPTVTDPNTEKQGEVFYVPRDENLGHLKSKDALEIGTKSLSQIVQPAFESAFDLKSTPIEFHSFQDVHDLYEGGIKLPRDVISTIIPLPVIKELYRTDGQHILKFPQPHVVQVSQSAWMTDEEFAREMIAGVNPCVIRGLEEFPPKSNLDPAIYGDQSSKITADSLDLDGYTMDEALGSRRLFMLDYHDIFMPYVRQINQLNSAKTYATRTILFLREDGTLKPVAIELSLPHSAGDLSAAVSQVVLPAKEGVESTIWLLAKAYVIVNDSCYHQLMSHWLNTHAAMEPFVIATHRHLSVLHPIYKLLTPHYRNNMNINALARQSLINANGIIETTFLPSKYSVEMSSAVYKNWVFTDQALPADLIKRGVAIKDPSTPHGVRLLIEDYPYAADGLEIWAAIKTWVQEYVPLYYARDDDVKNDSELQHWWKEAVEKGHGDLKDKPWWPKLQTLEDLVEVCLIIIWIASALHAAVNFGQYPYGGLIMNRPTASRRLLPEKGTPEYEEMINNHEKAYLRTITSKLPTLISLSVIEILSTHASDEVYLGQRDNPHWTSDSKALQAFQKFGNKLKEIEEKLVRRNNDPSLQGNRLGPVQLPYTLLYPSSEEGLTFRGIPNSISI

[2] = MTT cell viability assay; format: cell-based, human; details: human, blood mononuclear cells (MNCs)
[3] = test system: blood mononuclear cells (MNCs); assay: MTT cell viability assay; format: cell-based, human; details: MTT assay, 0.25 mM, mononuclear cells; mean ± SEM, n = 3

Compound | IC50 [1] [µM] | inhibition at 250 µM [1] [%] | viability at 0.25 mM [2] [%] | other results
COc1cc(/C=C/C(=O)CC(=O)/C=C/c2ccc(O)c(OC)c2)ccc1O [curcumin, reference compound] | – | – | 73.9 ± 1.5 | –
O=P1(N(CCCl)CCCl)NCCCO1 (stereo not shown) [cyclophosphamide, reference compound] | – | – | 56.5 ± 1.9 | –
CCCNC(=O)C(C)Sc1nnc(-c2ccc(Cl)cc2)n1Cc1ccco1 (stereo not shown) [Compound 7b, 2-((5-(4-Chlorophenyl)-4-(furan-2-ylmethyl)-4H-1,2,4-triazol-3-yl)thio)-N-n-propylmethylacetamide] | 26.3 ± 0.62 | 89.3 ± 1.55 | 90.1 ± 1.1 | –
2-((5-(4-Chlorophenyl)-4-(furan-2-ylmethyl)-4H-1,2,4-triazol-3-yl)thio)-N-(m-tolyl) Methylacetamide [Compound 7f] | – | – | – | inhibition (%) at 0.25 mM ([1]; 0.25 mM, mean ± SEM, n = 3): 82.13 ± 1.85%; IC50 ([1]; mean ± SEM, n = 3): 45.4 ± 0.72 µM; cell viability (%) at 0.25 mM [3]: 90.21 ± 1.2%

Now from value to compound, other results behind:

IC50 [1] [µM] | inhibition at 250 µM [1] [%] | Compound | viability at 0.25 mM [2] [%] | other results
2.24 ± 0.13 | – | O=c1cc(-c2ccccc2)oc2cc(O)c(O)c(O)c12 [baicalein, reference compound] | – | –
– | 92.6 ± 1.24 | O=c1c(O)c(-c2ccc(O)c(O)c2)oc2cc(O)cc(O)c12 [quercetin, reference compound] | – | –
